# According to patent US20260285835A1, “SOLID FORM OF PYRROLIDONE DERIVATIVE AS GLUCOKINASE ACTIVATOR” (priority 2023, published 2026):
# Where two headings read alike, the source gives them in different places.
# Tests used:
# [1] = High-humidity stability (90% RH) of free state crystal form A; type: physicochemical
# Description: (§1) The resulting sample was sampled at day 6, day 14 and day 34 for HPLC analysis.
# [2] = Photostability (direct sunlight) of free state crystal form A; type: physicochemical
# Description: The resulting sample was sampled at day 4 and day 15 for HPLC analysis.
# [3] = Dynamic vapour sorption (DVS) test; type: physicochemical; settings: 25° C.
# Description: A dynamic vapour sorption (DVS) test was conducted on crystal form A of the free state and crystal form B of the hydrochloride.
# A certain amount of powder was taken and put into a sample pan, and hygroscopicity of the sample was evaluated with DVS according to the following instrument method: […]
# [4] = High-temperature stability (60° C.) of free state crystal form A; type: physicochemical
# Description: as §1
# [5] = Forced degradation stability test (heat, humidity and heat, light); type: physicochemical; settings: light box 10 days
# Description: About 10 mg of the sample powder was weighed and placed in a transparent vial, an amber vial, and a transparent vial sealed with aluminum foil, respectively. Those vials were placed in a light box for 10 days, with a total illumination of 1.2×10^6 Lux·hr and a near-UV energy not less than 200w·hr/m^2, for photostability evaluation.
# The samples were taken at each time point for HPLC and XRPD analysis to evaluate the chemical and physical stability.
# [6] = type: physicochemical; settings: room temperature
# C57BL/6J mice = test: Pharmacodynamic study: OGTT blood glucose and insulin level in C57BL/6J mice; type: in vivo; settings: for Blood glucose level at 0 min (pre-glucose) vs vehicle control group: each administration group, 1 hour after administration, dose-response relationship
# Description: There were 7 groups of mice, with 8 mice in each group. […] Oral glucose tolerance test (OGTT) was performed 1 hour after administration. The blood glucose level in mice was tested before administration (−60 min), before sugar administration (0 min), and at 15 min, 30 min, 60 min, and 120 min after sugar administration. In addition, 40 μl of blood was collected from the tail tip before sugar administration (0 min) and at 15 min after sugar administration to collect the plasma for an insulin level test.
# All data was transferred into an Excel document. The blood glucose results were expressed in mg/dL and expressed as MEAN±SEM. Differences between multiple groups were analyzed using Dunnett's method in one-way analysis of variance (ANOVA) or two-way analysis of variance (ANOVA) with Graphpad Prism 8 software for comparison, and the differences were considered statistically significant when the P value was less than 0.05.
# [7] = Stability test in simulated intestinal fluid (SIF); type: in vitro ADME; settings: 37° C.
# Description: 0.136 g of KH2PO4 and 0.2 g of pancreatin were dissolved in water to obtain a final volume of 20 mL. The pH of the test solution was about 6.80±0.05.
# Then 200 μL of supernatant was pipetted and mixed completely again with 400 μL of cold acetonitrile containing 200 ng/mL tolbutamide (internal standard). • 7) All samples were centrifuged at 4000 rpm, 4° C. for 20 min. • 8) 60 μL of supernatant was pipetted and mixed completely with 180 μL of ultra-pure water, and the mixture was subjected to LC-MS/MS analysis.
# [8] = type: in vivo; settings: rats
# Description: Each group was divided into 2 subgroups (intravenous bolus group (IV) and gavage group (PO)).
# Whole blood samples (about 0.2 mL per time point) were collected at pre-dose (0), 0.083, 0.25, 0.5, 1, 2, 4, 8, 12, and 24 hours post-dose by jugular vein puncture. All the blood samples were immediately transferred into labeled pre-chilled commercial microcentrifuge tubes containing 4 μL of 0.5M K2-EDTA and 10 μL of cocktail stabilizer. Samples were placed on wet ice until centrifugation (within 30 min). Plasma samples were then prepared by centrifuging the blood samples at approximately 4° C., 3200×g for 10 minutes. Supernatant plasma was pipetted, then quickly frozen over dry ice, and then kept at −60° C. or lower temperature until LC-MS/MS analysis. The cocktail stabilizer was prepared according to the following Table 8:
# The plasma concentrations were subjected to a non-compartmental pharmacokinetic analysis by using the WinNonlin™ software program (version 6.3).
# Caco-2 cells = test: Caco-2 bi-directional permeability test; type: in vitro ADME
# Description: (§2) Caco-2 cell culture: Caco-2 cells (purchased from American Type Culture Collection, ATCC) were inoculated on polyethylene film (PET) of a 96-well culture plate at a concentration of 1×10^5 cells/cm^2. The culture medium was replaced every 4 days until cell confluency to form cell monolayer on day 21 or 28.
# (§3) Transport test: Transport buffer used in the test was Hanks' Balanced Salt Solution (HBSS) containing 10 mM 2-[4-(2-hydroxyethyl)-1-piperazinyl]ethanesulfonic acid (HEPES) with a pH of 7.40±0.05. […] The final concentration of DMSO in the incubation system was adjusted to <1%.
# [9] = Caco-2 bi-directional permeability test; type: in vitro ADME; settings: human; for metabolised at 2 h, 2 µM: Caco-2, pH 7.4, Compound A concentration 2.00 μM; for metabolised at 2 h, 10 µM: Caco-2, pH 7.4, Compound A concentration 10.0 μM; for metabolised at 2 h, 30 µM: Caco-2, pH 7.4, Compound A concentration 30.0 μM
# Description: as §2, §3
# [10] = Stability test in simulated gastric fluid (SGF); type: in vitro ADME; settings: 37° C.
# Description: 0.04 g of NaCl and 0.064 g of pepsin were dissolved in 0.14 mL of HCl, and water was added to bring the total volume to 20 mL. The pH of the test solution was about 1.20±0.05.
# Then 200 μL of supernatant was pipetted and mixed completely again with 400 μL of cold acetonitrile containing 200 ng/mL tolbutamide (internal standard). 7) All samples were centrifuged at 4000 rpm, 4° C. for 20 min. • 8) 60 μL of supernatant was pipetted and mixed completely with 180 μL of ultra-pure water, and the mixture was subjected to LC-MS/MS analysis.
# [11] = Simulated metabolic test in human intestine S9; type: in vitro ADME
# Description: 73.21 g of K2HPO4·3H2O (AR grade) and 10.78 g of KH2PO4 (AR grade) were dissolved in ultra-pure water to obtain a final volume of 4000 mL and a final concentration of 100 mM. The pH of the final test solution was adjusted to 7.40±0.10 with H3PO4/KOH.
# An Apricot automation workstation was used to add 50 μL/well of HIS9 solution to the corresponding wells of all reaction plates (blank, T0, T5, T15, T30, T45, T60).
# An Apricot automation workstation was used to add 48 μL/well of PB to the corresponding wells of every reaction plate (blank, T0, T5, T15, T30, T45, T60) to start the reaction.
# The reaction plates were incubated at 37° C., and timer was started. An Apricot automation workstation was used to add 300 μL/well of stop solution (cold acetonitrile containing 200 ng/mL tolbutamide (internal standard)) to the corresponding wells of each reaction plate at the appropriate end time point to stop the reaction.
# Each plate was sealed and shaken for 10 minutes. Each plate was centrifuged at 4000 rpm and 4° C. for 20 minutes. After centrifugation, 100 μL of supernatant was transferred from each reaction plate to the corresponding analysis plate, and mixed well with 300 μL of ultra-pure water.
# [12] = Compound A concentration 2.00 μM
# [13] = Compound A concentration 10.0 μM, 120 min
# [14] = Compound A concentration 30.0 μM, 120 min
# [15] = read-out: Average conversion rate to parent drug HMS5552 (%) A→B
# [16] = read-out: Average conversion rate to parent drug HMS5552 (%) B→A
smiles,measurement,setting,value
"CC(C)C[C@@H](C(=O)Nc1ccn(C[C@@H](O)COC(=O)c2cccnc2)n1)N1CC(Oc2ccccc2Cl)=CC1=O [crystal form A of the free state, (R)-3-(3-((S)-2-(4-(2-chlorophenoxy)-2-oxo-2,5-dihydro-1H-pyrrol-1-yl)-4-methylpentanamido)-1H-pyrazol-1-yl)-2-hydroxypropyl nicotinate]",Purity (Area %),[1]; 0 hour,98.17 Area %
same,"High-humidity stability (HPLC), conclusion",[1]; 90% RH without cover,still stable after being placed under the condition of 90% relative humidity for 14 days
same,Purity (Area %),"[1]; 90% RH, Day 6, without cover",98.99 Area %
same,Purity (Area %),"[1]; 90% RH, Day 14, without cover",99.09 Area %
same,Purity (Area %),[2]; 0 hour,98.17 Area %
same,"Photostability (HPLC), conclusion",[2]; direct sunlight,still stable after being placed under sunlight for 15 days
same,Purity (Area %),"[2]; direct sunlight, Day 4",99.07 Area %
same,Purity (Area %),"[2]; direct sunlight, Day 15",99.10 Area %
same,Moisture-induced weight gain,[3]; relative humidity of 95%,less than 0.7%
same,Moisture-induced weight gain,[3]; relative humidity of less than or equal to 90%,less than 0.5%
same,Purity (Area %),[4]; 0 h,98.17 Area %
same,"High-temperature stability (HPLC), conclusion",[4]; 60° C. oven without cover,still stable after being placed at 60 °C for 14 days
same,Purity (Area %),"[4]; 60° C., Day 6, without cover",99.03 Area %
same,Purity (Area %),"[4]; 60° C., Day 14, without cover",99.11 Area %
same,Crystalline form after forced degradation (XRPD),"[5]; 50° C., 80° C., 40° C./75% RH (unsealed), 1 day, 2 weeks, 4 weeks",does not change
same,Effect of light on stability,"[5]; […]10^6 Lux·hr, near-UV not less than 200w·hr/m^2",no effect on the stability
same,Solubility (mg/mL),[6]; DMAc,S>40.0 mg/mL
same,Solubility (mg/mL),[6]; DMSO,S>42.0 mg/mL
same,Solubility (mg/mL),[6]; MeOH,S>42.0 mg/mL
same,Solubility (mg/mL),[6]; NMP,S>40.0 mg/mL
same,Solubility (mg/mL),[6]; n-Heptane,S<1.1 mg/mL
"CC(C)C[C@@H](C(=O)Nc1ccn(C[C@@H](O)CO)n1)N1CC(Oc2ccccc2Cl)=CC1=O [HMS5552, (S)-2-(4-(2-chlorophenoxy)-2-oxo-2,5-dihydro-1H-pyrrol-1-yl)-N-(1-((R)-2,3-dihydroxypropyl)-1H-pyrazol-3-yl)-4-methylpentanamide, reference compound]",OGTT blood glucose values vs vehicle control group,"C57BL/6J mice; oral 40 mg/kg, at 30 min, 60 min and 120 min after glucose",significantly lower than that of the vehicle control group
same,Blood glucose level at 0 min (pre-glucose) vs vehicle control group,C57BL/6J mice; oral,generally lower than that of the vehicle control group
same,Insulin levels at 0 min and 15 min vs vehicle control group,"C57BL/6J mice; oral, each dose group","slightly higher than those in the vehicle control group, without significant difference"
"CC(C)C[C@@H](C(=O)Nc1ccn(C[C@@H](O)COC(=O)c2cccnc2)n1)N1CC(Oc2ccccc2Cl)=CC1=O [Compound A, (R)-3-(3-((S)-2-(4-(2-chlorophenoxy)-2-oxo-2,5-dihydro-1H-pyrrol-1-yl)-4-methylpentanamido)-1H-pyrazol-1-yl)-2-hydroxypropyl nicotinate]",Parent drug HMS5552 (%),"[7]; generation in SIF, 2 μM, 0 hr",0.86%
same,"metabolised at 1 h, 2 µM","[7]; simulated intestinal fluid, pH 6.8, generation in SIF, 1 hr, read-out: Parent drug HMS5552 (%)",35.6%
same,"metabolised at 2 h, 2 µM","[7]; simulated intestinal fluid, pH 6.8, generation in SIF, 2 hr, read-out: Parent drug HMS5552 (%)",46.6%
same,"metabolised at 6 h, 2 µM","[7]; simulated intestinal fluid, pH 6.8, generation in SIF, 6 hr, read-out: Parent drug HMS5552 (%)",72.8%
same,"metabolised at 24 h, 2 µM","[7]; simulated intestinal fluid, pH 6.8, generation in SIF, 24 hr, read-out: Parent drug HMS5552 (%)",73.4%
same,Metabolism after intravenous injection (in words),[8],metabolized very rapidly
same,Average recovery rate (%) A→B,Caco-2 cells; [12],52.9%
same,Average recovery rate (%) B→A,Caco-2 cells; [12],87.1%
same,The average apparent permeability Papp A→B,Caco-2 cells; [12],0.02977 10^−6 cm/s
same,Average recovery rate (%) A→B,Caco-2 cells; [13],37.5%
same,Average recovery rate (%) B→A,Caco-2 cells; [13],81.6%
same,The average apparent permeability Papp A→B,Caco-2 cells; [13],0.03187 10^−6 cm/s
same,Average recovery rate (%) B→A,Caco-2 cells; [14],82.2%
same,The average apparent permeability Papp A→B,Caco-2 cells; [14],0.04322 10^−6 cm/s
same,"metabolised at 2 h, 2 µM",[9]; [15],26.5%
same,"metabolised at 2 h, 2 µM",[9]; [16],5.8%
same,"metabolised at 2 h, 10 µM",[9]; [15],37.4%
same,"metabolised at 2 h, 10 µM",[9]; [16],5.6%
same,"metabolised at 2 h, 30 µM",[9]; [15],26.8%
same,"metabolised at 2 h, 30 µM",[9]; [16],3.4%
same,Parent drug HMS5552 (%),"[10]; generation in SGF, 2 μM, 0 hr",0.92%
same,"metabolised at 1 h, 2 µM","[10]; simulated gastric fluid, pH 1.2, generation in SGF, 1 hr, read-out: Parent drug HMS5552 (%)",0.86%
same,"metabolised at 2 h, 2 µM","[10]; simulated gastric fluid, pH 1.2, generation in SGF, 2 hr, read-out: Parent drug HMS5552 (%)",0.87%
same,"metabolised at 6 h, 2 µM","[10]; simulated gastric fluid, pH 1.2, generation in SGF, 6 hr, read-out: Parent drug HMS5552 (%)",1.02%
same,"metabolised at 24 h, 2 µM","[10]; simulated gastric fluid, pH 1.2, generation in SGF, 24 hr, read-out: Parent drug HMS5552 (%)",1.63%
same,Insulin level at 15 min vs corresponding dose group of HMS5552,C57BL/6J mice; oral 18.4 mg/kg,significantly higher than that of the corresponding dose group of HMS5552
same,Insulin level at 15 min vs vehicle control group,C57BL/6J mice; oral 18.4 mg/kg,significantly higher than that of the vehicle control group
same,Insulin level at 15 min vs vehicle control group,C57BL/6J mice; oral 49.1 mg/kg,significantly higher than that of the vehicle control group
same,OGTT blood glucose values vs vehicle control group,"C57BL/6J mice; oral 49.1 mg/kg, at 15 min, 30 min, 60 min and 120 min after glucose",significantly lower than that of the vehicle control group
same,OGTT blood glucose values vs HMS5552-40 mg/kg group,"C57BL/6J mice; oral 49.1 mg/kg, at 30 min, 60 min and 120 min after glucose",significantly lower than that of the HMS5552-40 mg/kg group
same,Blood glucose level at 0 min (pre-glucose) vs vehicle control group,C57BL/6J mice; oral,generally lower than that of the vehicle control group
same,Insulin level at 0 min vs vehicle control group and HMS5552 high-dose group,"C57BL/6J mice; oral, high-dose group",significantly higher than that of the vehicle control group and the HMS5552 high-dose group
same,OGTT AUC0-120min vs corresponding dose groups of HMS5552,"C57BL/6J mice; oral, medium and high dose groups",significantly lower than those of the corresponding dose groups of HMS5552
same,Parent drug HMS5552 (%),"[11]; HIS9 0.5 mg/mL, 37° C., 0 min",1.1%
same,Time to complete metabolism and conversion into parent drug HMS5552,[11]; human intestine S9,≤ 5 min
same,metabolised at 5 min,"[11]; human, s9, pH 7.4, HIS9 0.5 mg/mL, 37° C., 5 min, read-out: Parent drug HMS5552 (%)",80%
same,metabolised at 0.25 h,"[11]; human, s9, pH 7.4, HIS9 0.5 mg/mL, 37° C., 15 min, read-out: Parent drug HMS5552 (%)",77.2%
same,metabolised at 0.5 h,"[11]; human, s9, pH 7.4, HIS9 0.5 mg/mL, 37° C., 30 min, read-out: Parent drug HMS5552 (%)",79.8%
same,metabolised at 0.75 h,"[11]; human, s9, pH 7.4, HIS9 0.5 mg/mL, 37° C., 45 min, read-out: Parent drug HMS5552 (%)",81.2%
same,metabolised at 1 h,"[11]; human, s9, pH 7.4, HIS9 0.5 mg/mL, 37° C., 60 min, read-out: Parent drug HMS5552 (%)",90.5%
